Assay results taken from US7888389B2 (The Regents of the University of Michigan, priority 2002, dated 2011).
Read-outs that look alike come from different tables or passages of the source.

Tests used:
[1] = tested on: SUM149 breast cancer cells; test: SUM149 orthotopic tumors in nude mice; assay type: in vivo
Text: In this study, the ability of tetrathiomolybdate (TM) to abrogate or retard the growth of tumors in the mammary pads of nude mice after orthotropic injection of human breast cancer cells was studied. The highly angiogenic inflammatory breast cancer cell line called SUM149 was selected for this study. Given its high propensity to form palpable tumors within 2 weeks of injection into the mammary of 80-100% of the nude mice injected, this cell line posed a stringent test of the ability of TM to impair tumor progression.
Three groups of 5 nude mice each were set up in separate cages. Groups 2 and 3 received TM in the drinking water to average an intake of 1.2 mg/day/mouse, starting at day-7. Groups 1, 2, and 3 were injected on day 0 with 10^6 SUM149 breast cancer cells in the second thoracic mammary fat pad. On day 34, as no palpable tumors were noticeable in any of the mice in the treatment groups, TM was skipped on groups 2 and 3, and then TM was restarted on group 2at a dose of 0.6 mg/day/mouse, while TM was resumed at full dose (1.2 mg/mouse/day) in group 3.
The developing tumors were measured approximately twice weekly, and the average of the product of the bi-dimensional perpendicular diameters for each group versus time was determined. The tumors in the control group grew relatively rapidly and all animals developed tumors. […] This dose decreases copper to approximately 10-20% of baseline levels. It is this degree of copper deficiency, well tolerated in both mice and humans, which appears to be required to inhibit tumor angiogenesis.

[2] = Storage stability of TM (bulk and capsules); assay type: physicochemical; details: room temperature
Text: TM and salts of TM are available; one of the preferred salts of TM is the ammonium salt. […] TM purchased from Aldrich Chemical Company (available in one kilogram bulk lots) is certified pure for human use. The bulk drug should be stored in the absence of oxygen, or the oxygen will gradually exchange with the sulfur, rendering the drug ineffective over time. The bulk drug is therefore stored under argon.
TM was purchased in bulk lots suitable for human administration (Aldrich Chemical Company, Milwaukee, Wis.). […] At the time a prescription was written, the appropriate dose of TM was placed in gelatin capsules. […] Thus, TM was dispensed to each patient in eight-week installments throughout the trial.

[3] = cited from earlier work
[4] = cited from earlier work; remark: listed apart in the source
[5] = Stability in moist heated air; assay type: physicochemical
[6] = tested on: mouse sarcoma, MCA205, and mouse melanoma, B16B16; test: Mouse tumor model, injected tumor cells; assay type: in vivo, C57B1/6J mice
Description: Under these guidelines, anti-angiogenesis therapeutic studies were conducted using TM in a mouse tumor model. This study involved subcutaneous or intramuscular injection of tumor cells into young adult C57B1/6J mice. Two tumors were used, a mouse sarcoma, MCA205, and a mouse melanoma, B16B16. The MCA 205 tumor cell suspension was injected subcutaneously into C57B16 mice. After the tumors were palpable, copper deficiency was induced by use of TM in half the animals, using Cp levels to monitor copper status. The other half were sham treated. Tumor growth was compared between the untreated control group and mice treated with sufficient TM to reduce Cp to about 10% of normal controls.

[7] = Open label study of TM for initial treatment of Wilson's disease; assay type: in vivo, human
Text: The inventors have carried out an open label study of the use of TM for initial treatment of neurologically presenting Wilson's disease patients for the past several years. The inventors have developed both a spectrophotometric and bioassay for the activity of the drug, to evaluate stability, and assure potency of the drug being administered (Brewer et al., 1991a; Brewer et al., 1994b). The drug slowly loses potency when exposed to air.
The inventors have now treated a total of 51 Wilson's disease patients with TM, all of whom presented with neurological or psychiatric disease, in an open label study. These patients were all diagnosed by standard criteria. […] Some of them were treated briefly with other agents prior to this trial. Two patients had psychiatric but not neurological symptoms.
With three exceptions in the earliest part of the study, all patients received a dose of 20 mg tid with meals, or qid with three meals and a snack. Thus, the only difference between a patient receiving 120 mg and 140 mg total dose is that the former was receiving 20 mg tid, or 60 mg, with meals, and the latter was receiving 20 mg qid, or 80 mg with meals plus a snack. The rest of the total daily dose was divided up into three equal doses and given between meals.

[8] = late stages of liver disease; cited from earlier work
[9] = tested on: MML cells (prostate cancer) and breast cancer cells
[10] = IV 99Mo labeled TM, sheep; cited from earlier work
[11] = cited from earlier work; remark: listed apart in the source
[12] = ½ dose of TM (0.6 mg/day/mouse)
[13] = among the seven patients with anemia

Description for metastatic solid tumors: Serum ceruloplasmin (Cp) was used as a surrogate marker for total-body copper. As anemia is the first clinical sign of copper deficiency, the goal of the study was to reduce Cp to 20% of baseline value, without reducing hematocrit by more than 80% of baseline.
Patients with effusions or bone marrow involvement as the only manifestations of disease, and those who had severe intercurrent illness requiring intensive management or were transfusion dependent, were excluded. […] Other requirements were demonstrable progression of disease in the previous 3 months, after standard treatments such as surgery, chemotherapy, radiotherapy, and/or immunotherapy, or progressive disease after declining conventional treatment modalities.
Three dose regimens were evaluated. All dose levels consisted of TM 20 mg given 3 times daily with meals plus an escalating (levels I, II, and III) in-between meal dosing, given 3 times daily, for a total of 6 doses per day.
Baseline Cp was taken as the nearest Cp measurement to day 1 of treatment, including day 1, since the blood was drawn pre-TM, for all patients. The target Cp reduction was defined as 20% of baseline Cp. […] In addition, if the absolute Cp was less than 5 mg/dl, then the patient was considered as having reached the target Cp. […] After reaching the target copper deficient state, TM doses were individually tailored to maintain Cp within a target window of 70-90% reduction from baseline.
Six patients were to be enrolled at each dose level. After 4 patients were enrolled at level I, if one patient experienced dose-limiting toxicity (DLT) (defined as Hct<80% of baseline), 2 more patients were enrolled at level I. If no DLT was observed, patients were enrolled at the next dose level. Treatment was allowed to continue beyond induction of target copper deficiency, if the patients experienced a partial or complete clinical response or achieved clinical stable disease by the following definitions. Complete response is defined as the disappearance of all clinical and laboratory signs and symptoms of active disease. Partial response is defined as a 50% or greater reduction in the size of measurable lesions defined by the sum of the products of the longest perpendicular diameters of the lesions, with no new lesions or lesions increasing in size. […] Because copper deficiency is not a cytotoxic treatment modality, the patients who provide information about the efficacy of TM for long-term therapy, in this population of patients with advanced cancer, are primarily those who remained within the target Cp window of (20±10)% of baseline for over 90 days, without disease progression
The serum ceruloplasmin level obtained weekly was used as a surrogate measure of total-body copper status. […] The serum Cp level is in the range of 20-35 mg/dl and 30-65 mg/dl for normal controls and cancer patients, respectively. The objective as this trial was to reduce Cp to or below 20% of baseline, and to maintain this level, within a window spanned by (20±10) % of the baseline Cp, with typical Cp values in the range of 7-12 mg/dl. […] Thus, the copper deficiency objective of this trial was to reduce the Cp to 20% of baseline or below, without decreasing the patient's hematocrit or WBC to below 80% of the baseline value at entry.
Complete blood counts, liver and renal function tests, urinalyses, and Cp level (by the oxidase method) were performed weekly for 16 weeks, then bi-weekly.

In the case of tetrathiomolybdate [TM], the “palpable tumors in treatment groups” value ([1]; TM 1.2 mg/day/mouse in drinking water from day -7) is reported as “no tumors were palpable until TM was skipped on day 34”, the copper level ([1]; full dose TM 1.2 mg/day/mouse) is reported as 10-20 % of baseline levels and the “tumor growth after day 34” value ([1]; full dose TM 1.2 mg/day/mouse) is reported as “only very small tumors have grown”. The “decrease of copper levels” value [1, 12] was 50%, the “tumor growth after day 34” value [1, 12] was “the tumors grew more rapidly” and the stability in capsules [2] was “stable in capsules for several months at room temperature”. For the same substance, the “tolerance of TM injections” value ([3]; IV 50 or 100 mg 2x weekly, copper loaded sheep) was “tolerated up to 22 injections of TM without clinical problems”, the “adverse side effects in commercial sheep flocks” value ([3]; over 400 animals treated) was “no adverse side effects” and the anemia ([4]; 18 mg of TM) was “the anemia was severe”. The effects in rats ([4]; approximately 6 mg of TM per kilogram of diet) was “substantial effects on copper”, the anemia ([4]; approximately 12 mg of TM) was “Mild anemia was present” and the skeletal lesions ([4]; approximately 12 mg of TM) was “one of six animals”. The “prevention of toxic effects by copper” value ([4]; up to 36 mg of TM per kilogram of diet) was “could be prevented by oral supplementation with copper”, the “increase of loss of activity in moist heated air over ambient conditions” value [5] was “about 10 fold” and the “tumor growth rate, final tumor size and weight” value ([6]; TM sufficient to reduce Cp to about 10% of normal, 16 days observation) was “significant effect on reducing the growth rate of tumors, and on reducing final tumor size and weight”. The “tumor weight normalized to total weight of the animal versus control” value ([6]; mouse, in vivo) was “weighed significantly less than the tumors in control mice”, the “cases of reversible anemia” value ([7]; 45 patients, eight weeks TM as initial therapy) was 11.1% and the “patients with reversible anemia/bone marrow depression” value ([7]; 51 patients treated) was “seven”. The “patients with reduction in platelet count” value [7, 13] was “Three”, the “patients with reduction in white blood cell count” value [7, 13] was “four” and the overtreatment ([7]; dose of 180 mg/day or over) was 6 of 37 patients. For the same substance, the overtreatment ([7]; dose of 150 or lower) was 1 of 13 patients, the “time to close the plasma copper-molybdenum gap (free copper to zero)” value ([7]; first patient) was 16 days and the “patients with elevation of transaminase values (AST, ALT)” value ([7]; in vivo) was “four”. For the same substance, the “quantitative speech exam scores” value ([7]; initial 8 weeks of TM therapy) was “No patient shows significant (more than 2.0 units) reduction in scores”, the “average fall in hemoglobin” value ([7]; the seven patients with anemia) was 3.4 g % and the “patients with significant neurological worsening (change of more than 5 units)” value ([7]; weeks of TM administration) was 4 % of the sample. The “efficacy in LEC rats” value [8] was “very effective”, the “effective decoppering serum concentration relative to threshold lethal level for cells (fold lower)” value [9] was 100-500 fold and the excreted in feces [10] was 5%. For the same substance, the excreted in urine [10] was “over 90%”, the “t1/2 of slow plasma disappearance” value [10] was “about 40 h” and the “potency retained in gelatin capsules” value ([11]; eight weeks) was “at least 90%”. For the same substance, the “stability of bulk drug” value ([11]; under argon) was “stable for several years under argon”, the “speed of reducing Cp level to <20%” value (metastatic solid tumors; 20 mg tid with meals plus single 60 mg between meals vs 20 mg tid with and 20 mg tid between meals) was “more rapidly” and the “mean time to 50% reduction of Cp” value (metastatic solid tumors; 90, 105, 120 mg/day) was 30 days. For the same substance, the “median time to Cp 50% of baseline” value (metastatic solid tumors; 90, 105, 120 mg/day) was 28 days, the “level III dose outcome” value (metastatic solid tumors; TM 120 mg/day) was “effective in reaching the target Cp, without added toxicity” and the “time for further reduction to Cp levels of 5-10 mg/dl” value (metastatic solid tumors; after reaching 50% of baseline) was 20 to 30 days. For the same substance, the “lung lesions in two patients with stable disease” value (metastatic solid tumors; at target Cp for 120 and 49 days) was “complete disappearance of some lung lesions and decrease in size of other lung lesions”, the “additional toxicities with long-term maintenance” value (metastatic solid tumors; human, in vivo) was “No additional toxicities of any type were observed” and the burping (metastatic solid tumors; human, in vivo) was “Several patients experienced transient, occasional sulphur-smelling burping”. For the same substance, the “mild (greater than 80% of baseline Hct) reversible anemia” value (metastatic solid tumors; human, in vivo) was 4 patients, the “only drug-related toxicity observed” value (metastatic solid tumors; human, in vivo) was “mild anemia in one patient” and the “time for hematocrit to recover after stopping the drug” value (metastatic solid tumors; human, in vivo) was 5 to 7 days. For the same substance, the “time to rapid rise in Cp after TM discontinued” value (metastatic solid tumors; human, in vivo) was no more than 48 h, the “toxicities at Cp levels at or above 20% of baseline” value (metastatic solid tumors; human, in vivo) was “no cardiac, pulmonary, GI, renal, hepatic, hematologic, infectious, skin, mucosal, or neurologic toxicities observed” and the “treated patients maintained at target Cp for more than 90 days” value (metastatic solid tumors; human, in vivo) was 39%. For the same substance, the “patients with serum Cp lowered to 50% of baseline” value (metastatic solid tumors; initial TM 90 to 120 mg per day) was 17 out of 18 patients, the “duration of stable disease on TM treatment” value (metastatic solid tumors; one patient, previously untreated metastatic breast cancer) was “over 6 months” and the “decrease in blood flow to tumor mass (3D-ultrasound)” value (metastatic solid tumors; rib metastasis of renal cell carcinoma, approximately 8 weeks after target copper deficiency) was 4.4 fold.
